Results on 4 compounds are retold here after US12055546B2, “Fluorescent probe for detecting carboxypeptidase activity” (THE UNIVERSITY OF TOKYO, priority 2018, dated 2024).

Data set [1] has as its system Cc1ccc(/N=N/C(=O)N[C@@H](CCC(=O)O)C(=O)O)cc1-c1c2ccc(=O)cc-2oc2cc(O)ccc12. In words: Reactivity with PSMA purified enzyme (Example 6). The class given is biochemical, human. Conditions: other: apparent dynamic parameter, PSMA added to various probe concentrations, Table 4; 37.0 °C.
Data set [2] in a line: Absorption/fluorescence spectrum measurement. The class given is physicochemical. Conditions: for Absorption maximum (nm) / Fluorescence maximum (nm) / Quantum yield: 200 mM phosphate buffer (pH 7.4); for Fluorescence under physiological conditions: as compared to fluorescein. Here is the method:
The absorption spectrum was measured using UV-2450 (SIMADZU), and the fluorescence spectrum was measured using F-7000 (HITACHI).
FIG. 9 and FIG. 10 illustrate the results of the absorption/fluorescence spectrum measurement of 2Me5GluAF-TG (Compound 32). […] The absorption spectrum was measured using UV-2450 (SIMADZU), and the fluorescence spectrum was measured using F-7000 (HITACHI).

In another data set the target is T1, carboxypeptidase A (CPA) (Homo sapiens, UniProt P15085).
T1 sequence (P15085 111-419): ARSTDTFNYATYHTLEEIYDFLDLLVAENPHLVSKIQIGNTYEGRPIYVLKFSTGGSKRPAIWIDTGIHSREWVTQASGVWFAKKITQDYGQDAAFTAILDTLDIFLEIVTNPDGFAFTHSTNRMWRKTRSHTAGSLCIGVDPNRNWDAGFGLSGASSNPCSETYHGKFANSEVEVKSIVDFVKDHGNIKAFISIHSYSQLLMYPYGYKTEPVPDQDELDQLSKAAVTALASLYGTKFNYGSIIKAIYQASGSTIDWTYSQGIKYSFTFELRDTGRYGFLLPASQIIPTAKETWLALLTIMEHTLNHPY
In words: Enzyme assay with CPA. The format is biochemical. How it is done:
• (1) First to third solutions prepared by dissolving 10 μM probe in 600 μL of each assay buffer were provided. • (Assay buffer: Tris-buffered saline (TBS)) (2) 2 μg of CPA was activated with 18 μL of 5 ng/mL trypsine solution for 1 hour • (3) 9 μL of the solution in (2) was added to the solution in (1), and the mixture was incubated at 37° C. for 5 hours. For one of the solutions, a CPA specific inhibitor; potato carboxypeptidase inhibitor (final concentration 10 μg/mL) was also added at the same time and incubated at 37° C. for 5 hours. • (4) 200 μL of each solution after the incubation in (3) was diluted to 2800 μL with 200 mM Na-Pi […], and the fluorescence spectrum was measured.

Data set [3] deals with LNCaP cell lysate (PSMA expressing prostate cancer cell). In words: Cell lysate assay, LNCaP. The format is biochemical. The following applies: probe 10 μM, 37° C. How it is done:
(§1) A PSMA specific inhibitor 2-PMPA (10 μM) was added to one of LNCaP cell lysate samples at the same time, and measurement was performed. • (2) The obtained fluorescence intensity of each lysate was normalized based on 0 minutes being set to 1, and then plot was performed with the incubation time on the horizontal axis.
(§2) A solution (20 μM, 100 μL) of 2Me5GluAF-TG (Compound 32) and a cell lysate (0.36 mg/mL, 100 μL) were reacted in TBS-T buffer at 37° C., and the fluorescence intensity was measured every 30 minutes. The measurement procedure is as described in Example 3.
(§3) Ex/em: 485/535 nm, n=3, probe final concentration: 10 μM, inhibitor (2-PMPA) concentration: 10 μM

For data set [4], the target named is T2, PSMA (Homo sapiens, UniProt Q04609). In words: Reactivity with PSMA purified enzyme (Example 6). The format is biochemical. The following applies: apparent dynamic parameter, Table 4.
Data set [5] has as its target T2, PSMA. Kind of data set: Enzyme assay with PSMA (Example 2), fluorescence spectrum and Michaelis-Menten plot. The format is biochemical. The following applies: for Fluorescence rise due to enzymatic reaction with PSMA: 10 μM probe, 0.44 μg PSMA, 37° C., 15 hours. Here is the method:
A change in the fluorescence spectrum due to the enzymatic reaction was measured as follows. The reactivity of 6-fluAFGlu to PSMA was evaluated by creating a Michaelis-Menten plot. • (1) Two solutions prepared by dissolving 10 μM probe in 200 μL of each assay buffer were provided. • (Assay buffer: 50 mM HEPES, 100 mM NaCl, pH 7.5) • (2) 0.44 μg of PSMA was added to each and incubated at 37° C. for 15 hours. For one of the solutions, a PSMA specific inhibitor 2-(Phosphonomethyl)-pentandioic acid (2-PMPA) (final concentration 10 μM) was also added at the same time and incubated at 37° C. for 15 hours. • (3) Each solution after the incubation in (2) was diluted to 2800 μL with 200 mM Na-Pi buffer, and the fluorescence spectrum was measured.
FIG. 1 illustrates the fluorescence spectrum of 5-fluAFGlu and 6-fluAFGlu after addition of PSMA and an inhibitor (2-PMPA, 10 μM) (S/N to 417 at 516 nm).

Data set [6] concerns LNCaP (PSMA expressing cell). Kind of data set: Live cell assay on 96-well plate (plate reader). The format is cell-based. Here is the method:
LNCaP as a PSMA expressing cell and PC3 as a PSMA non-expressing cell were cultured on a 96-well plate, a 10 μM aqueous solution of 6-fluAFGlu (Compound 25) was added thereto, and the cells were observed over time.

The subject of data set [7] is PC3 cell lysate (PSMA non-expressing prostate cancer cell). Kind of data set: Cell lysate assay, PC3. The format is biochemical. The following applies: probe 10 μM, 37° C. How it is done:
as §1, §2, §3

Where [8] appears, read: apparent dynamic parameter with PSMA, Table 2.

T2 sequence (Q04609 whole entry): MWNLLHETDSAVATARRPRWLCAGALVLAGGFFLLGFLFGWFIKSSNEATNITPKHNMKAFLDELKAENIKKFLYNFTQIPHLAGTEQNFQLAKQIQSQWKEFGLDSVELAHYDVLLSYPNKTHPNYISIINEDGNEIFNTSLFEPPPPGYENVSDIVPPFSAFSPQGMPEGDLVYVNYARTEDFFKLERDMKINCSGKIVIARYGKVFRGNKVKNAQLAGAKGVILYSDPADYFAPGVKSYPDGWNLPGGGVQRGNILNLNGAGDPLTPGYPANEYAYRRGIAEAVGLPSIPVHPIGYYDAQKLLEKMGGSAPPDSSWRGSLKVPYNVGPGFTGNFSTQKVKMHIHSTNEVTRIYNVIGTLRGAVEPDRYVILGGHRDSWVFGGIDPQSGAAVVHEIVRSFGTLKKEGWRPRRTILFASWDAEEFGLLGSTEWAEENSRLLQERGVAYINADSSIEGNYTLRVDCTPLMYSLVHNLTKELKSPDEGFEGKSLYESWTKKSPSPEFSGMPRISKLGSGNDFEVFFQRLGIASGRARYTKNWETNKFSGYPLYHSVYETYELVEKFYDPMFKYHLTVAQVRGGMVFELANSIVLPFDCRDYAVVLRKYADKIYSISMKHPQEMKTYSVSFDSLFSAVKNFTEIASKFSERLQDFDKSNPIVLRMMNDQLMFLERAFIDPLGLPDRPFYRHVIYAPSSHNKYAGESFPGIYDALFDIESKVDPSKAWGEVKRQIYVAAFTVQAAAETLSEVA

As for recombinant human PSMA (Homo sapiens), in data set [1], the Km was 4.3 µM, the kcat amounted to 0.066 s⁻¹ and the kcat/Km came out at 15300 M⁻¹ s⁻¹.
As for `O=C(N=Nc1ccc(C(=O)O)c(-c2c3ccc(=O)cc-3oc3cc(O)ccc23)c1)NC(Cc1ccccc1)C(=O)O` (centres unmarked) [Compound 6-fluAFPhe], in data set [2], the “Absorption maximum (nm)” value worked out at 494 nm, the “Fluorescence maximum (nm)” value turned out to be 519 nm, the Quantum yield is reported as 0.025 and the “Fluorescence under physiological conditions” value is “almost no fluorescencence”. Besides, the “Fluorescence rise due to enzymatic reaction with CPA” value on carboxypeptidase A (CPA) (10 μM probe, 37° C., 5 hours) is on record as “the fluorescence rise due to the enzymatic reaction was observed”. For the same compound, the “S/N of fluorescence spectrum after addition of CPA1 and inhibitor” value at carboxypeptidase A (CPA) (at 517 nm, potato carboxypeptidase inhibitor, 10 μM) is approximately 13.
Regarding `O=C(O)CCC(NC(=O)N=Nc1ccc(C(=O)O)c(-c2c3ccc(=O)cc-3oc3cc(O)ccc23)c1)C(=O)O` (centres unmarked) [Compound 6-fluAFGlu], the “Increase in fluorescence in LNCaP cell lysate with inhibitor” value in data set [3] (2-PMPA 10 μM) is “almost no increase in fluorescence was observed”. Further, the “Increase in fluorescence in LNCaP cell lysate” value in data set [3] is “a significant increase in fluorescence was observed”. For the same compound, in data set [2], the “Absorption maximum (nm)” value stood at 494 nm, the “Fluorescence maximum (nm)” value was determined as 526 nm, the Quantum yield was 0.002 and the “Fluorescence under physiological conditions” value was “almost no fluorescencence”. Besides, the Michaelis constant (Km) at PSMA [4] (PSMA added to various probe concentrations) came to 5 µM. The kcat at PSMA [4] amounted to 0.001 s⁻¹. For the same compound, on PSMA [5], the “Fluorescence rise due to enzymatic reaction with PSMA” value is on record as “a fluorescence rise due to an enzymatic reaction was observed”. For the same compound, at PSMA [5] (setting [8]), the Michaelis constant (Km) came out at 2.4 µM and the kcat is 0.00055 s⁻¹. Moreover, at PSMA [5] (at 516 nm, inhibitor 2-PMPA 10 μM), the “S/N of fluorescence spectrum after addition of PSMA and inhibitor” value is reported as approximately 417. The “Increase in fluorescence intensity in live LNCaP cells” value in data set [6] (10 μM probe in TBS, compared to PC3) is listed as “a significant increase in fluorescence intensity was observed in LNCaP compared to PC3”. Further, the “Increase in fluorescence in live LNCaP cells with inhibitor” value in data set [6] (10 μM probe, 2-PMPA 10 μM) is recorded as “significantly suppressed”. In addition, the “Increase in fluorescence in PC3 cell lysate” value in data set [7] was “almost no increase in fluorescence was observed”.
For `O=C(O)CCC(NC(=O)N=Nc1ccc2c(c1)C(=O)OC21c2ccc(O)cc2Oc2cc(O)ccc21)C(=O)O` (centres unmarked) [Compound 5-fluAFGlu], in data set [2], the “Absorption maximum (nm)” value turned out to be 494 nm, the “Fluorescence maximum (nm)” value was 521 nm, the Quantum yield is recorded as 0.003 and the “Fluorescence under physiological conditions” value was “almost no fluorescencence”. Further, the “Fluorescence rise due to enzymatic reaction with PSMA” value at PSMA [5] is listed as “only in 6-fluAFGlu”.
